According to ChEMBL document CHEMBL1201862, “PubChem BioAssay data set” (2004):
Values belong to the molecule of their own block, whether it stands above or below them. Calls of active or inactive are those of the source.

Key:
[1] = target: T1, ATP-dependent translocase ABCB1 (Homo sapiens, UniProt P08183); test: ABCB1 efflux inhibitor potency, dose response, Jurkat-DNR cells, JC-1, flow cytometry, set 2 (AID 504569); format: functional; conditions: read-out: EC50_MICROM_;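 also: potency of pump inhibitors that raise cellular JC-1 green fluorescence up to the nicardipine level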
[2] = target: T1, ATP-dependent translocase ABCB1; test: ABCG2 efflux pump inhibitor potency, dose response, Ig-MXP3 cells, JC-1, flow cytometry, set 2 (AID 504566); format: functional; conditions: read-out: EC50_MICROM_;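 also: flow cytometry median green fluorescence of retained JC-1 dye; potency of efflux pump inhibition measured as rising substrate retention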
[3] = CRF-BP/CRF-R2 complex antagonists, dose response, cell-based, uHTS hits, 384-well (AID 651639); format: functional, Homo sapiens; conditions: read-out: IC50_Mean
[4] = target: T2, Corticotropin-releasing factor receptor 2/Corticotropin-releasing factor-binding protein (Homo sapiens, UniProt P24387+Q13324); test: Dose Response confirmation of uHTS hits for small molecule antagonists of the CRF-binding protein and CRF-R2 receptor complex.; format: functional; conditions: read-out: IC50_Mean
T2 sequence (Q13324 whole entry): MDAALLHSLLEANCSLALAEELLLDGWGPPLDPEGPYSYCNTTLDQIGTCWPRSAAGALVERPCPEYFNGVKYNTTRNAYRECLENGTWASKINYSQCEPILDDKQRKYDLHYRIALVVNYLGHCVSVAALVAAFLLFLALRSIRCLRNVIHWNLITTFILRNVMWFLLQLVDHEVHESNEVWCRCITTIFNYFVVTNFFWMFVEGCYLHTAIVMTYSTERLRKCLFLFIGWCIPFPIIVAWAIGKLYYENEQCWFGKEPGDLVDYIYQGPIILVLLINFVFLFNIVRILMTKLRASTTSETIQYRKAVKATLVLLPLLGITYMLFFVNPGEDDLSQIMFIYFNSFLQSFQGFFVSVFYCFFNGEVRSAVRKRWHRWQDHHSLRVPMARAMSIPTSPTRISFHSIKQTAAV
T2 sequence (P24387 whole entry): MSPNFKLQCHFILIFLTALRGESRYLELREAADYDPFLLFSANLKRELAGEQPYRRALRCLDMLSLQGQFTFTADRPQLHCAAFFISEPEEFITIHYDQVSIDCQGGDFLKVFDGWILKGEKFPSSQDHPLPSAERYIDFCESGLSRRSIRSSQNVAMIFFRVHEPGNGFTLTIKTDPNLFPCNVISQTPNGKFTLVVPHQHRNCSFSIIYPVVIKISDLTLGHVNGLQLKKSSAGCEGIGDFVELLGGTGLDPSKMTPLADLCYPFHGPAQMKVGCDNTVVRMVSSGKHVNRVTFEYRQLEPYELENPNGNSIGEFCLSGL

[5] = target: T2, Corticotropin-releasing factor receptor 2/Corticotropin-releasing factor-binding protein; test: activators of CRF receptor 2 with binding protein – uHTS hits, confirmation (AID 602473); format: functional; conditions: read-out: EC50_Mean
[6] = target: Hepatocyte nuclear factor 4-alpha (Homo sapiens, UniProt P41235); format: functional, cell-based;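 also: biochemical luminescence-based dose-response counterscreen measuring inhibition of HNF4 dimerization, run alongside a screen for blockers of ABHD5–perilipin-5 interaction; split luciferase complementation of HNF4 fusion proteins in cell lysate measuring dimerization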
Hepatocyte nuclear factor 4-alpha, sequence (P41235 whole entry, the tested form may be a part): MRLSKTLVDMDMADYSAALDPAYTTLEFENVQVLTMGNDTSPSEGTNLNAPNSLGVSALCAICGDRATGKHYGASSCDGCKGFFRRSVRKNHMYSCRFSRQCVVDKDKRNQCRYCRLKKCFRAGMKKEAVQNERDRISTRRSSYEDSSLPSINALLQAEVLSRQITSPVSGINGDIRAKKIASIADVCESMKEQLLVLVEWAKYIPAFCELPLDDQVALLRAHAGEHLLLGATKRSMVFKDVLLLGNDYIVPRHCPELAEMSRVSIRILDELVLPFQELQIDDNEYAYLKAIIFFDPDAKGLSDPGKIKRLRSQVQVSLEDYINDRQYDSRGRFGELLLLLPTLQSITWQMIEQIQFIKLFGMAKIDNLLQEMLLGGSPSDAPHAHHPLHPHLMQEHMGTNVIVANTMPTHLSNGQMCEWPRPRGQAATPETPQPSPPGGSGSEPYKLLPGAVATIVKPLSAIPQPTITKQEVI

T1 sequence (P08183 whole entry): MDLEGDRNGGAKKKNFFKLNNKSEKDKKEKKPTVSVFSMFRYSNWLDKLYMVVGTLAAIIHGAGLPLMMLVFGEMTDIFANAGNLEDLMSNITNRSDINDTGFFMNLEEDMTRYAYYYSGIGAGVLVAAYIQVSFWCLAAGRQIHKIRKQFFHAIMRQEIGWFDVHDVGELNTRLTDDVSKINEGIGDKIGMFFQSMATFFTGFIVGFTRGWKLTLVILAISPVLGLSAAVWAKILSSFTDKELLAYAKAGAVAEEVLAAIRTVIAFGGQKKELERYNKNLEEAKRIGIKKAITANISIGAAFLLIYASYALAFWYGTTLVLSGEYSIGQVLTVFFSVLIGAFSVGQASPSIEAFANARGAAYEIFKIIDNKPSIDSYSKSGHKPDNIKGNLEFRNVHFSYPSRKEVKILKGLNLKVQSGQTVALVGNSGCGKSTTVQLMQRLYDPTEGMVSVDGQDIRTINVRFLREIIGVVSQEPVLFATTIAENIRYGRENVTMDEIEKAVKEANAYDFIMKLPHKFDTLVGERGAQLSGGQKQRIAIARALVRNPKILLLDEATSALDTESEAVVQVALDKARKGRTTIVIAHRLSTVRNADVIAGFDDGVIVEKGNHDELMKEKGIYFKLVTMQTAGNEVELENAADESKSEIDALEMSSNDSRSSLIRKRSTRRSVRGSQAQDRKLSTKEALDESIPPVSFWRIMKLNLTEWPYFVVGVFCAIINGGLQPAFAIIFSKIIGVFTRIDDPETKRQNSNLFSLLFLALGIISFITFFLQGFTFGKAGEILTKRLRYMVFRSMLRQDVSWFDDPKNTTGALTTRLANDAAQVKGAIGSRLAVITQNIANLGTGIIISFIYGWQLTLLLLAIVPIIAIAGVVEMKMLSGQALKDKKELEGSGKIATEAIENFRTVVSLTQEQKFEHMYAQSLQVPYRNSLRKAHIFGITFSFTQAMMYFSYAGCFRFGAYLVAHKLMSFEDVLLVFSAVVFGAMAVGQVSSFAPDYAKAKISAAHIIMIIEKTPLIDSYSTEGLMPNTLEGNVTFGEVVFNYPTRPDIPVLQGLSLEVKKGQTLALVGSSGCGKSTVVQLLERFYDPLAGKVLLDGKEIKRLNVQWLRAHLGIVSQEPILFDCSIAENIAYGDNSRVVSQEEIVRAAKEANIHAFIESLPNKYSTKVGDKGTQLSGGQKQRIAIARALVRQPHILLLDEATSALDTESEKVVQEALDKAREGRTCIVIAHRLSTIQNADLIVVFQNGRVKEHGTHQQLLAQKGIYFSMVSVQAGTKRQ

EC50 [1]: 5.56 µM (active) | EC50 [2]: 4.95 µM (active)
Compound: Cc1ccc(-c2cc3nc(C)cc(N4CCN(C(=O)c5ccoc5)CC4)n3n2)cc1

IC50 [3]: > 20 µM (inactive) | IC50 [4]: 32.1 µM (active) | EC50 [5]: > 53 µM (inactive)
Compound: COCCN=C(S)N1CCc2cc(OC)c(OC)cc2C1COc1cc(C)cc(C)c1 (stereo unspecified)

IC50 [6]: 1.34 µM (active)
Compound: Cc1cccc(C)c1NC(=O)C(c1ccc(-c2ccccc2)cc1)n1c(=O)c(-c2ccco2)nc2ccccc21 (stereo unspecified)
